Source: patent US20260232767A1, “INTERLEUKIN-23 RECEPTOR ANTAGONIST PEPTIDES FOR USE IN THE TREATMENT OF PSORIASIS” (Janssen Pharmaceutica NV, priority 2023, published 2026)

System: subjects with moderate-to-severe plaque psoriasis
Experiment: PASI response, Example 2 long-term extension to Week 52
Format: in vivo, human
Conditions: for Change from Baseline in PASI Total Score, LSMean: MMRM model
Excerpt: Described below is a multicenter, long-term extension (LTE), double-blind, dose-ranging, parallel group interventional study in participants from Example 1 to evaluate the long-term efficacy and safety of the hydrochloride salt of the compound of Formula (I) for the treatment of moderate-to-severe plaque psoriasis. Patients from Example 1 continued to receive the same dose of the compound of Formula (I) for an additional 36-week treatment period with a 4-week safety follow up period after the last administration of the compound of Formula (I). Patients randomized to placebo in Example 1 received the compound of Formula (I) at a dose of 100 mg QD starting at Week 16 of Example 1 (FIG. 21).
The primary efficacy endpoint is the proportion of participants achieving a PASI 75 response at Week 52, defined as at least a […] reduction from baseline PASI of Example 1. For primary analysis, composite strategy (non-responder imputation) was applied to address intercurrent event #1 (Discontinuation of study intervention due to lack of efficacy or due to an AE of worsening of psoriasis) and […] (initiation of a protocol-prohibited medication or therapy that could improve psoriasis); treatment policy strategy (observed data) was applied to intercurrent event #3 (Discontinuation of study intervention due to other reasons). Participants with missing data after application of ICEs are considered as non-responders.
Since there was no control arm (after week 16), in this primary analysis, only the proportion of participants who achieved a PASI75 response and its […] confidence interval at Week 52 were summarized for each intervention group.

[1] = 50 mg QD, Week 52, non-responder imputation

CC(=O)NCCCC[C@@H]1NC(=O)[C@H](Cc2c[nH]c3c(C)cccc23)NC(=O)[C@H]([C@@H](C)O)NC(=O)[C@H](CC(N)=O)NC(=O)[C@@H](NC(C)=O)C(C)(C)SSC(C)(C)[C@@H](C(=O)N[C@@H](Cc2ccc(OCCN)cc2)C(=O)N[C@@H](Cc2ccc3ccccc3c2)C(=O)NC2(C(=O)N[C@@H](CCC(=O)O)C(=O)N[C@@H](CC(N)=O)C(=O)N[C@@H](Cc3cccnc3)C(=O)N(C)CC(N)=O)CCOCC2)NC1=O [IL-23 receptor antagonist peptide, Ac-[Pen]*-N-T-[W(7-Me)]-[Lys(Ac)]-[Pen]*-Phe[4-(2-aminoethoxy)]-[2-Nal]-[THP]-E-N-[3-Pal]-Sarc-NH2 (*[Pen]-[Pen]* formdisulfidebond)]
Change from Baseline in PASI Total Score, Median (50 mg QD, Week 16): −14.90 | Change from Baseline in PASI Total Score, LSMean (50 mg QD, Week 16): −14.4 | Change from Baseline in PASI Total Score, Mean (50 mg QD, Week 20): −14.92 | Change from Baseline in PASI Total Score, Median (50 mg QD, Week 20): −15.10 | Change from Baseline in PASI Total Score, LSMean (50 mg QD, Week 20): −14.7 | Change from Baseline in PASI Total Score, Mean (50 mg QD, Week 24): −15.10 | Change from Baseline in PASI Total Score, Median (50 mg QD, Week 24): −15.70 | Change from Baseline in PASI Total Score, LSMean (50 mg QD, Week 24): −14.9 | Change from Baseline in PASI Total Score, Mean (50 mg QD, Week 28): −14.75 | Change from Baseline in PASI Total Score, Median (50 mg QD, Week 28): −15.50 | Change from Baseline in PASI Total Score, LSMean (50 mg QD, Week 28): −14.6 | Change from Baseline in PASI Total Score, Mean (50 mg QD, Week 32): −14.88 | Change from Baseline in PASI Total Score, Median (50 mg QD, Week 32): −15.80 | Change from Baseline in PASI Total Score, LSMean (50 mg QD, Week 32): −14.6 | Change from Baseline in PASI Total Score, Mean (50 mg QD, Week 40): −14.33 | Change from Baseline in PASI Total Score, Median (50 mg QD, Week 40): −15.45 | Change from Baseline in PASI Total Score, LSMean (50 mg QD, Week 40): −14.2 | Change from Baseline in PASI Total Score, Mean (50 mg QD, Week 52): −14.45 | Change from Baseline in PASI Total Score, Median (50 mg QD, Week 52): −15.80 | Subjects achieving PASI 75 (50 mg QD, Week 52): 30 (69.8%) | Change from Baseline in PASI Total Score, LSMean (50 mg QD, Week 52): −14.3 | Subjects achieving 100% Improvement at Week 52 (PASI) [1]: (20.9%) | Subjects achieving ≥75% Improvement at Week 52 (PASI 75 Response) [1]: 30 (69.8%) | Subjects achieving ≥90% Improvement at Week 52 (PASI) [1]: (41.9%) | Change from Baseline in PASI Total Score, Mean (100 mg BID, Week 1): −3.25 | Change from Baseline in PASI Total Score, Median (100 mg BID, Week 1): −1.20 | Change from Baseline in PASI Total Score, LSMean (100 mg BID, Week 1): −2.9 | Change from Baseline in PASI Total Score, Mean (100 mg BID, Week 2): 6.07 | Change from Baseline in PASI Total Score, Median (100 mg BID, Week 2): −4.85 | Change from Baseline in PASI Total Score, LSMean (100 mg BID, Week 2): −5.7 | Change from Baseline in PASI Total Score, Mean (100 mg BID, Week 4): −10.71 | Change from Baseline in PASI Total Score, Median (100 mg BID, Week 4): −9.70 | Change from Baseline in PASI Total Score, LSMean (100 mg BID, Week 4): −10.0 | Change from Baseline in PASI Total Score, Mean (100 mg BID, Week 8): −14.66 | Change from Baseline in PASI Total Score, Median (100 mg BID, Week 8): −13.30 | Change from Baseline in PASI Total Score, LSMean (100 mg BID, Week 8): −13.8 | Change from Baseline in PASI Total Score, Mean (100 mg BID, Week 12): −16.77 | Change from Baseline in PASI Total Score, Median (100 mg BID, Week 12): −17.05 | Change from Baseline in PASI Total Score, LSMean (100 mg BID, Week 12): −15.9 | Change from Baseline in PASI Total Score, Mean (100 mg BID, Week 16): −17.44 | Change from Baseline in PASI Total Score, Median (100 mg BID, Week 16): −17.40 | Change from Baseline in PASI Total Score, LSMean (100 mg BID, Week 16): −16.5 | Change from Baseline in PASI Total Score, Mean (100 mg BID, Week 20): −17.83 | Change from Baseline in PASI Total Score, Median (100 mg BID, Week 20): −17.40 | Change from Baseline in PASI Total Score, LSMean (100 mg BID, Week 20): −17.0 | Change from Baseline in PASI Total Score, Mean (100 mg BID, Week 24): −17.99 | Change from Baseline in PASI Total Score, Median (100 mg BID, Week 24): −17.80 | Change from Baseline in PASI Total Score, LSMean (100 mg BID, Week 24): −17.1 | Change from Baseline in PASI Total Score, Mean (100 mg BID, Week 28): −17.96 | Change from Baseline in PASI Total Score, Median (100 mg BID, Week 28): −17.75 | Change from Baseline in PASI Total Score, LSMean (100 mg BID, Week 28): −17.2 | Change from Baseline in PASI Total Score, Mean (100 mg BID, Week 32): −18.37 | Change from Baseline in PASI Total Score, Median (100 mg BID, Week 32): −18.20 | Change from Baseline in PASI Total Score, LSMean (100 mg BID, Week 32): −17.3 | Change from Baseline in PASI Total Score, Mean (100 mg BID, Week 40): −18.30 | Change from Baseline in PASI Total Score, Median (100 mg BID, Week 40): −18.30 | Change from Baseline in PASI Total Score, LSMean (100 mg BID, Week 40): −17.4 | Change from Baseline in PASI Total Score, Mean (100 mg BID, Week 52): −18.46 | Change from Baseline in PASI Total Score, Median (100 mg BID, Week 52): −18.60 | Subjects achieving PASI 75 (100 mg BID, Week 52): 32 (76.2%) | Change from Baseline in PASI Total Score, LSMean (100 mg BID, Week 52): −17.4 | Subjects achieving ≥75% Improvement at Week 52 (PASI 75 Response) (100 mg BID, Week 52, non-responder imputation): 32 (76.2%) | Change from Baseline in PASI Total Score, Mean (100 mg QD, Week 1): −2.60 | Change from Baseline in PASI Total Score, Median (100 mg QD, Week 1): −1.10 | Change from Baseline in PASI Total Score, LSMean (100 mg QD, Week 1): −2.8 | Change from Baseline in PASI Total Score, Mean (100 mg QD, Week 2): −5.13 | Change from Baseline in PASI Total Score, Median (100 mg QD, Week 2): −3.25 | Change from Baseline in PASI Total Score, LSMean (100 mg QD, Week 2): −5.3 | Change from Baseline in PASI Total Score, Mean (100 mg QD, Week 4): −8.39 | Change from Baseline in PASI Total Score, Median (100 mg QD, Week 4): −7.30 | Change from Baseline in PASI Total Score, LSMean (100 mg QD, Week 4): −8.7 | Change from Baseline in PASI Total Score, Mean (100 mg QD, Week 8): −12.04 | Change from Baseline in PASI Total Score, Median (100 mg QD, Week 8): −11.30 | Change from Baseline in PASI Total Score, LSMean (100 mg QD, Week 8): −12.5 | Change from Baseline in PASI Total Score, Mean (100 mg QD, Week 12): −13.70 | Change from Baseline in PASI Total Score, Median (100 mg QD, Week 12): −13.60 | Change from Baseline in PASI Total Score, LSMean (100 mg QD, Week 12): −14.0 | Change from Baseline in PASI Total Score, Mean (100 mg QD, Week 16): −13.99 | Change from Baseline in PASI Total Score, Median (100 mg QD, Week 16): −14.75 | Change from Baseline in PASI Total Score, LSMean (100 mg QD, Week 16): −14.4 | Change from Baseline in PASI Total Score, Mean (100 mg QD, Week 20): −14.57 | Change from Baseline in PASI Total Score, Median (100 mg QD, Week 20): −14.10 | Change from Baseline in PASI Total Score, LSMean (100 mg QD, Week 20): −15.1 | Change from Baseline in PASI Total Score, Mean (100 mg QD, Week 24): −15.27 | Change from Baseline in PASI Total Score, Median (100 mg QD, Week 24): −14.90 | Change from Baseline in PASI Total Score, LSMean (100 mg QD, Week 24): −15.6 | Change from Baseline in PASI Total Score, Mean (100 mg QD, Week 28): −16.11 | Change from Baseline in PASI Total Score, Median (100 mg QD, Week 28): −15.00 | Change from Baseline in PASI Total Score, LSMean (100 mg QD, Week 28): −15.8 | Change from Baseline in PASI Total Score, Mean (100 mg QD, Week 32): −16.21 | Change from Baseline in PASI Total Score, Median (100 mg QD, Week 32): −15.10 | Change from Baseline in PASI Total Score, LSMean (100 mg QD, Week 32): −16.2 | Change from Baseline in PASI Total Score, Mean (100 mg QD, Week 40): −15.95 | Change from Baseline in PASI Total Score, Median (100 mg QD, Week 40): −15.00 | Change from Baseline in PASI Total Score, LSMean (100 mg QD, Week 40): −15.7 | Change from Baseline in PASI Total Score, Mean (100 mg QD, Week 52): −15.81 | Change from Baseline in PASI Total Score, Median (100 mg QD, Week 52): −15.00
